Here are results for 103 compounds from PubChem BioAssay AID1996.

≈ marks a conversion by molar mass, not a printed value.

For the data set the following is noted: buffer; pH 7.4; 200.0 µM.
What is called kinetic solubility is the concentration staying in solution when a stock, usually in DMSO, is diluted into the medium. Take `COCc1ccc(C(=O)Nc2cccc(S(=O)(=O)N(C)c3ccccc3)c2)cc1`: the kinetic solubility is 0.0157 mg/mL (≈ 38.2 µM). The result for `CCOc1ccc2nc(NC(=O)C3(C)CC3(Br)Br)sc2c1` (stereo not drawn) reads 0.0084 mg/mL (≈ 19.3 µM); that for `Cc1ccc(NC(=O)NCc2ccccn2)c(C)c1`, above 0.0383 mg/mL. The result for `O=C(OCC(=O)N1CCOCC1)c1ccc2ccccc2c1` reads above 0.0449 mg/mL. The result for `O=C1CS/C(=N\NC(=O)c2ccccc2)N1` reads above 0.0353 mg/mL. In turn, `Cc1cc(C)c(C#N)c(N)n1` gave a kinetic solubility above 0.0221 mg/mL.

`COC(=O)C1CCN(C(=O)c2cc(-c3ccco3)nc3ccccc23)CC1` returned a solubility (kinetic) above 0.0547 mg/mL. The result for `COc1ccc(NC(=O)CCNC(=O)c2ccco2)cc1OC` reads 0.0473 mg/mL (≈ 149 µM); that for `CCOc1cc(N2CCOCC2)c(OCC)cc1NC(=O)c1cc(S(=O)(=O)N2CCOCC2)ccc1C`, above 0.08 mg/mL; that for `CCOC(=O)C1=C(C)Nc2ccccc2N=C1NC(=O)C1CCN(C(=O)c2ccccc2C)CC1`, 0.0353 mg/mL (≈ 74.4 µM). The result for `Nc1ccc(-c2cnc[nH]2)cc1[N+](=O)[O-]` reads above 0.0306 mg/mL; that for `NC(=O)c1oc2ccccc2c1NC(=O)Cc1ccccc1`, 0.0437 mg/mL (≈ 148 µM). Consider `CCOC(=O)c1ccc(NC(=S)NCc2cccnc2)cc1`, for which the solubility (kinetic) is above 0.0473 mg/mL. The result for `Cc1ccc(S(=O)(=O)n2cnc3ccccc32)cc1[N+](=O)[O-]` reads above 0.0476 mg/mL; that for `S=C(c1c[nH]c2ccccc12)N1CCCC1`, above 0.0345 mg/mL. Turning to `Cc1ccc(C)c(NC(=O)C(C)N2C(=O)c3ccccc3C2=O)c1` (stereo not drawn), the solubility (kinetic) was found to be 0.021 mg/mL (≈ 65.1 µM).

Turning to `O=C(Nc1ccc(NC(=O)c2ccco2)nc1)c1cccc(F)c1`, the kinetic solubility was determined as 0.0019 mg/mL (≈ 5.84 µM). The figure for `O=[N+]([O-])c1ccc(CSC2=NCCS2)cc1` is 0.0161 mg/mL (≈ 63.3 µM); for `CC(C)Nc1nc(-c2ccncc2)nc(-c2ccccc2)c1C#N` it is below 0.0001 mg/mL; for `O=C(c1cccc(C(F)(F)F)c1)N1CCN(CCc2ccccc2)CC1` it is above 0.0544 mg/mL. Compound `COc1ccc(NC(=O)c2ccccc2Oc2ccccc2)c(OC)c1` displayed a solubility (kinetic) below 0.0007 mg/mL. With `CCOC(=O)N1CCN(S(=O)(=O)c2ccc(C)cc2)CC1`, the kinetic solubility is 0.0281 mg/mL (≈ 90 µM). The result for `NC(N)=Nc1nc(-c2ccccc2)c2cc(F)ccc2n1` reads above 0.0422 mg/mL. The result for `O=C(/C=C/c1ccco1)NCCc1ccccc1` reads 0.0331 mg/mL (≈ 137 µM); that for `CCn1c(C)c(C(=O)O)c2cc(OC)c3ccccc3c21`, 0.0168 mg/mL (≈ 59.3 µM). The figure for `CC12CCC(=O)N1C(C(=O)Nc1cccc(F)c1)CS2` (stereo not drawn) is above 0.0442 mg/mL; for `CC(C)(C)NCC(O)COc1cccc2c1CC(O)C(O)C2` (stereo not drawn) it is above 0.0464 mg/mL. `S=c1nc(NCCc2ccccc2Cl)c2ccccc2[nH]1`: the kinetic solubility came out at 0.0002 mg/mL (≈ 0.633 µM). The result for `CC(=O)N1CCN(c2ccc(S(=O)(=O)N3CCCCC3)cc2[N+](=O)[O-])CC1` reads above 0.0595 mg/mL. The result for `Cc1cc(=O)[nH]c(Nc2ccc(Cl)cc2)n1` reads above 0.0354 mg/mL. `O=C(NCCCN1CCCC1=O)c1ccccc1OCc1ccc(Cl)cc1Cl` showed a kinetic solubility of 0.0547 mg/mL (≈ 130 µM).

In the case of `NC(=O)c1cc(NC(=O)COC(=O)CCCN2C(=O)c3cccc4cccc(c34)C2=O)cc(C(N)=O)c1`, the solubility (kinetic) worked out at 0.0049 mg/mL (≈ 9.75 µM).

With `CN(Cc1ccccc1)C(=O)COC(=O)COc1ccc(Cl)cc1`, the solubility (kinetic) was found to be 0.0029 mg/mL (≈ 8.34 µM). `CSCC[C@H](NC(=O)C1CCN(S(=O)(=O)c2ccc(C)cc2C)CC1)c1nc2ccccc2[nH]1`: the solubility (kinetic) was determined as 0.0033 mg/mL (≈ 6.59 µM).

Regarding `COc1ccc(/C=C(\C#N)C(=O)c2cccn2C)cc1`, the kinetic solubility amounted to 0.005 mg/mL (≈ 18.8 µM). The result for `O=c1c2cc3c(nc2[nH]c(=S)n1-c1ccccc1)CCCC3` reads 0.0005 mg/mL (≈ 1.62 µM); that for `CCOC(=O)c1sc(=S)n(CC)c1NC(=O)c1ccccc1`, 0.0088 mg/mL (≈ 26.2 µM); that for `Cc1ccc(C(=O)NCCNC(=O)c2ccccn2)cc1`, above 0.0425 mg/mL. The result for `CCOC(=O)c1cc(NC(=O)/C=C\C(=O)O)ccc1Cl` reads above 0.0447 mg/mL; that for `COc1ccccc1CNC(=S)NC1CCCCC1`, above 0.0418 mg/mL. The figure for `COC(=O)c1ccccc1NS(=O)(=O)c1ccc(Cl)nc1` is 0.048 mg/mL (≈ 147 µM). Turning to `Oc1ccc(NCc2cccs2)cc1`, the kinetic solubility was 0.0265 mg/mL (≈ 129 µM). The result for `Fc1ccccc1N1CCN(c2ncnc3nc[nH]c23)CC1` reads 0.0013 mg/mL (≈ 4.36 µM); that for `CCNC(=S)Nc1ccc(Cl)c([N+](=O)[O-])c1`, above 0.039 mg/mL; that for `CC(=O)/C=C1/C(=O)Nc2ccccc21`, above 0.0281 mg/mL. The result for `CCS(=O)(=O)N1CCN(C(=O)c2cccc3ccccc23)CC1` reads above 0.0499 mg/mL; that for `Cc1ccc(S(=O)(=O)c2nc(-c3ccccc3Cl)oc2N(C)C2CCN(C)CC2)cc1`, above 0.069 mg/mL; that for `COc1ccc(NC(=O)c2cc(C)nc3ccccc23)c(OC)c1`, above 0.0484 mg/mL. The result for `CCc1ncc(C)[nH]1` reads above 0.0165 mg/mL; that for `O=C(N/C=C/c1ccco1)Nc1cccc(Cl)c1`, 0.0313 mg/mL (≈ 119 µM); that for `COc1ccc(CN2C(=O)c3ccc(C(=O)O)cc3C2=O)cc1`, above 0.0467 mg/mL. `CCC(C)Oc1ccc(C(=O)Nc2ccc(CN3CCOCC3)cc2)cc1` (stereo not drawn) came in with a kinetic solubility of 0.0541 mg/mL (≈ 147 µM). The result for `CCC(Oc1ccccc1OC)C(=O)Nc1ccc2c(c1)OCO2` (stereo not drawn) reads 0.0263 mg/mL (≈ 79.9 µM); that for `O=C(c1ccccc1)c1ccc(C(=O)N2CCN(c3ccc(O)cc3)CC2)cc1`, 0.0474 mg/mL (≈ 123 µM); that for `COC(=O)CNC(c1ccccc1)c1cc(Br)ccc1N` (stereo not drawn), 0.0055 mg/mL (≈ 15.7 µM).

`Nc1ccc(S(=O)(=O)C(F)(F)F)cc1N` displayed a kinetic solubility above 0.036 mg/mL. The result for `Cc1cccc(-n2cc(-c3ccccc3)[nH]c2=S)c1` reads 0.0087 mg/mL (≈ 32.7 µM). The figure for `O=C(NCCc1c[nH]c2ccccc12)c1ccc2c(c1)OCO2` is 0.0445 mg/mL (≈ 144 µM); for `CCCOc1ccc(C(=O)Nc2ccc3c(c2)OCCO3)cc1` it is 0.001 mg/mL (≈ 3.19 µM).

Compound `O=[N+]([O-])c1ccc(N2CCN(c3ccc(O)cc3)CC2)cn1` gave a kinetic solubility above 0.045 mg/mL. The result for `O=C(NN1CCOCC1)c1cccc(Cl)c1` reads above 0.0361 mg/mL; that for `O=C(NNC(=O)c1ccccc1C(=O)O)c1cc2ccccc2o1`, above 0.0486 mg/mL. The result for `O=C(CCNC(=O)c1ccco1)Nc1nc2ccccc2s1` reads 0.0045 mg/mL (≈ 14.3 µM); that for `CC(=O)NCCc1ccc(C(=O)Cn2cnc3ccccc3c2=O)cc1`, above 0.0524 mg/mL. `O=C(O)c1ccc(S(=O)(=O)N2CCN(c3ccccn3)CC2)cc1` came in with a solubility (kinetic) above 0.0521 mg/mL.

On to `O=C(NCc1nc2ccccc2[nH]1)C1CCCCC1`, for which the solubility (kinetic) is above 0.0386 mg/mL. The result for `Cc1cccc(OP(N)(=O)Oc2cccc(C)c2C)c1C` reads 0.0039 mg/mL (≈ 12.8 µM); that for `Cc1cc(C(=O)NCCc2ccccc2)c2cc(F)ccc2n1`, 0.0149 mg/mL (≈ 48.3 µM); that for `O=C(c1ccccc1)N1CCN(C(=O)C2CC2)CC1`, 0.0382 mg/mL (≈ 148 µM). The figure for `Cc1ccccc1OCCCCCCN1CCNCC1.O=C(O)C(=O)O` is 0.0495 mg/mL. The result for `O=C(O)c1ccc(-c2ccccc2)[nH]c1=O` reads above 0.0323 mg/mL; that for `Cc1nc2c(C(F)(F)F)cccc2c2c1CCS2`, below 0.0006 mg/mL; that for `Cn1c(N)c(C(=O)COC(=O)c2ccc(F)cc2Cl)c(=O)n(C)c1=O`, 0.0045 mg/mL (≈ 12.2 µM). As to `COc1ccc(N/C=C\C(=O)c2ccc3ccccc3c2)cc1`, the solubility (kinetic) was below 0.0006 mg/mL. The figure for `Cc1cc(NC(=O)COC(=O)C2CCC(=O)N2)c([N+](=O)[O-])cc1C` (stereo not drawn) is above 0.0503 mg/mL. The figure for `CCC(C(=O)NC(C)c1ccccc1)C(=O)NC(C)c1ccccc1` (stereo not drawn) is 0.0068 mg/mL (≈ 20.1 µM); for `O=C(COc1ccccc1F)Nc1ccc2c(c1)CCC2` it is 0.004 mg/mL (≈ 14 µM); for `CC(=O)N/C(=C\c1ccc(F)cc1)C(=O)OCc1ccccc1` it is above 0.047 mg/mL.

With `O=C(OCC(=O)N1CCc2ccccc21)[C@@H]1CC(O)CN1S(=O)(=O)c1ccc(Cl)cc1` (stereo partly drawn), the kinetic solubility was found to be 0.0504 mg/mL (≈ 108 µM). The figure for `OC1CSc2nc3ccccc3n2C1` (stereo not drawn) is 0.0266 mg/mL (≈ 129 µM). As to `COc1cc(OC)cc(C(=O)NC(c2ccccc2)c2ccccc2)c1`, the kinetic solubility is below 0.0007 mg/mL. The result for `Cc1cccc(C(=O)NCCCNC(=O)c2ccc(C)nc2)c1` reads 0.0441 mg/mL (≈ 142 µM); that for `Oc1ccccc1N1CCN(c2ccc3ccccc3n2)CC1`, 0.0042 mg/mL (≈ 13.8 µM); that for `C=CCNC(=O)COC(=O)c1c2c(nc3ccccc13)CCC2`, 0.0409 mg/mL (≈ 132 µM).

In turn, `O=C(O)CSCC(=O)Nc1ccccn1` returned a solubility (kinetic) above 0.0339 mg/mL. For the compound `CC(C(=O)C12CC3CC(CC(C3)C1)C2)N1CCOCC1.Cl` (stereo not drawn), the solubility (kinetic) was above 0.0471 mg/mL. The figure for `CC(=O)c1ccc(NC(=O)N2C[C@H]3C[C@@H](C2)c2cccc(=O)n2C3)cc1` is above 0.0527 mg/mL; for `CN(c1ccccc1)c1ccc([N+](=O)[O-])c2nonc12` it is 0.0021 mg/mL (≈ 7.77 µM); for `O=C(Nc1cccnc1)c1cc(-c2ccccc2O)on1` it is 0.0013 mg/mL (≈ 4.62 µM). The figure for `O=C(NNC(=O)c1cccnc1Cl)c1ccc(F)cc1` is above 0.0441 mg/mL; for `CSc1ncnc2sc(C)c(C)c12` it is 0.0013 mg/mL (≈ 6.18 µM); for `O=C(O)CNS(=O)(=O)c1ccc2c3c(cccc13)C(=O)N2` it is above 0.0459 mg/mL.

Turning to `O=c1[nH]c(-c2ccccc2)c(-c2ccccc2)nc1[N+](=O)[O-]`, the kinetic solubility turned out to be 0.0421 mg/mL (≈ 144 µM). The result for `CN1C(=O)CSC1=Nc1ccc(Br)cc1` reads 0.0333 mg/mL (≈ 117 µM); that for `Cc1ccc(C#N)c(SCc2ccccc2F)n1`, below 0.0003 mg/mL; that for `CN(C)c1cc(-c2cccc([N+](=O)[O-])c2)oc(=O)c1Cl`, 0.0013 mg/mL (≈ 4.41 µM).

The compound `Cn1c(=O)n(C)c2cc(S(=O)(=O)Nc3ccc(F)cc3)ccc21` came in with a kinetic solubility of 0.0335 mg/mL (≈ 99.9 µM). The figure for `O=C(O)C1CCN(C(=O)c2cc(F)cc3c2OCOC3)CC1` is above 0.0464 mg/mL. Compound `Cc1ccc(C(=O)Nc2cccc(-c3nc4ncccc4o3)c2)cc1` returned a kinetic solubility of 0.0013 mg/mL (≈ 3.95 µM).

In turn, `NC1=NC(=O)/C(=C/c2cccc(F)c2)S1` displayed a kinetic solubility of 0.0027 mg/mL (≈ 12.1 µM). Consider `CC1CCN(Cc2cc(=O)oc3ccc4ccccc4c23)CC1`, for which the solubility (kinetic) was 0.0023 mg/mL (≈ 7.48 µM). As for `Cc1occc1C(=O)/C(C#N)=C/c1ccc(O)c(Br)c1`, the kinetic solubility is above 0.0498 mg/mL. The result for `O=[N+]([O-])c1ccc(NC(=S)N2CCc3ccccc32)cc1` reads 0.0039 mg/mL (≈ 13 µM).
